The results in this text go back to patent US20160016951A1 (Merck Patent GmbH, priority 2014, published 2016).

In this experiment the target is T1, CDK8 (CDK8/CycC) (Homo sapiens, UniProt P49336).
T1 construct: purchased Invitrogen PV4402
T1 sequence (P49336 whole entry): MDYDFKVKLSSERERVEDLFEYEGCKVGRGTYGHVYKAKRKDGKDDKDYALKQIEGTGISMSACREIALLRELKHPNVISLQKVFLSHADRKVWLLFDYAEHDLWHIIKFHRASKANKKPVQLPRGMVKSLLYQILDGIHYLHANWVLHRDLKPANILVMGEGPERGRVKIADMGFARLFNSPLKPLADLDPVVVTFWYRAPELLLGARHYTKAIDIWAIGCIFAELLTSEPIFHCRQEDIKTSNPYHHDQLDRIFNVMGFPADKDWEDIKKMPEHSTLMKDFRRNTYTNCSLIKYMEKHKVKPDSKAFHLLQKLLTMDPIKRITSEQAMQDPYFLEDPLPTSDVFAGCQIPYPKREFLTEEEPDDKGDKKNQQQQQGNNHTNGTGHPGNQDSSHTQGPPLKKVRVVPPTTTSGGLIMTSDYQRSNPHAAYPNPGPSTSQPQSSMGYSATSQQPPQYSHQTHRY
T1 sequence (P24863 whole entry partner): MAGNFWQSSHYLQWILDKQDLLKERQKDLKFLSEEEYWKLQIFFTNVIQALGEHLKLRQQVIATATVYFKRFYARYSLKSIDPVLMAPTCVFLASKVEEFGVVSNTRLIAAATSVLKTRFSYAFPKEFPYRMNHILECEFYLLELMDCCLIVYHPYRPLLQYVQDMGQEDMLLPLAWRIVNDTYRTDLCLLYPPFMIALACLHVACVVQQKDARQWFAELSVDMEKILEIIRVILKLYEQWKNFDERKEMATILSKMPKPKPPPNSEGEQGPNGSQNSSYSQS
Briefly: FRET based Lanthascreen binding competition assay. Particulars: 5 nM CDK8/CycC, 10 nM Alexa647-Tracer, 1% DMSO, 60 min at RT; read-out: IC50 CDK8 binding. The protocol: FRET based Lanthascreen binding competition assay: A dye-labeled ATP competitive probe served as a FRET acceptor upon binding to CDK8 labeled with a strepavidin —Eu-chelate (via abiotinylated anti His antibody). […] In case this probe was competed by an inhibitor as such a signal cannot be generated any more. The CDK8 used for this assay was a protein co-expressed with CycC.
The assay procedure for an assay in a 1536 well plate was performed according to the following: 2 μL CDK8/biotin-anti-His Ab/SA-Eu mix in Assay buffer were pipetted into the wells of a micro plate.
1 μL compound in 20 mM Hepes buffer/5% DMSO was added. The plate was shaken for 30 sec and incubated for 20 min at RT. 2 μL Alexa647-probe in assay buffer were added. The plate was shaken for 30 sec again and incubated for 60 min at RT in the dark. Then the plate was read out on a Perkin Elmer Envision (mode LANCE/TRF, excitation 340 nm emission 650 nm).
Background: In TR-FRET formats the signal depends on donor and acceptor labels being close together.
A word on the IC50: it is the point on the concentration scale where inhibition reaches its midpoint. Regarding `CN1c2ccc(-c3cncc4ccc(CO)nc34)cc2CS1(=O)=O` [Compound 51, [8-(1-Methyl-2,2-dioxo-2,3-dihydro-1H-benzo[c]isothiazol-5-yl)-[1,6]naphthyridin-2-yl]-methanol], the IC50 was 0.01 to 0.1 µM.
For `COC1CN(C(=O)c2ccc3cncc(-c4ccc5c(cnn5CC(C)(C)O)c4)c3n2)C1` [Compound 52, (8-(1-(2-hydroxy-2-methylpropyl)-1H-indazol-5-yl)-1,6-naphthyridin-2-yl)(3-methoxyazetidin-1-yl)methanone], the 50% inhibitory concentration (IC50) was in the range of 0.01 to 0.1 µM.
For the compound `CNCc1ccc2cncc(-c3ccc4c(c3)CS(=O)(=O)N4C)c2n1` [Compound 53, Methyl-[8-(1-methyl-2,2-dioxo-2,3-dihydro-1H-benzo[c]isothiazol-5-yl)-[1,6]naphthyridin-2-ylmethyl]-amine], the concentration for half-maximal inhibition (IC50) was in the range of 0.01 to 0.1 µM.
As to `O=C(c1ccc2cnccc2n1)N1CCC[C@H]1c1ccccc1` [Compound 54, (S)-(1,6-naphthyridin-2-yl)(2-phenylpyrrolidin-1-yl)methanone], the IC50 fell in the range of 0.01 to 0.1 µM.
Take `CNc1ccc2cncc(-c3ccc(-c4cnn(C)c4)cc3)c2n1` [Compound 56, N-methyl-8-(4-(1-methyl-1H-pyrazol-4-yl)phenyl)-1,6-naphthyridin-2-amine]: the IC50 lay within 0.101 to 0.5 µM.
For `COC1CN(C(=O)c2ccc3cncc(-c4ccc(-c5cc(C(F)(F)F)nn5C)cc4)c3n2)C1` [Compound 57, (3-methoxyazetidin-1-yl)(8-(4-(1-methyl-3-(trifluoromethyl)-1H-pyrazol-5-yl)phenyl)-1,6-naphthyridin-2-yl)methanone] the value was 0.101 to 0.5 µM; for `CN1c2ccc(-c3cnc(N)c4ccc(CO)nc34)cc2CS1(=O)=O` [Compound 58, [5-Amino-8-(1-methyl-2,2-dioxo-2,3-dihydro-1H-benzo[c]isothiazol-5-yl)-[1,6]naphthyridin-2-yl]-methanol], 0.101 to 0.5 µM; for `CN(C)C(=O)c1ccc2c(N)ncc(-c3ccc4c(c3)CS(=O)(=O)N4)c2n1` [Compound 59, 5-amino-8-(2,2-dioxido-1,3-dihydrobenzo[c]isothiazol-5-yl)-N,N-dimethyl-1,6-naphthyridine-2-carboxamide], 0.101 to 0.5 µM.
For `Cc1ncc(-c2ccc(-c3cnn(C)c3)cc2)c2nc(C(N)=O)ccc12` [Compound 61, 5-Methyl-8-(4-(1-methyl-1H-pyrazol-4-yl)phenyl)-1,6-naphthyridine-2-carboxamide] the value was 0.101 to 0.5 µM.
With `Cc1cncc2ccc(C(=O)N[C@@H](C)c3ccccc3)nc12` [Compound 62, (S)-8-methyl-N-(1-phenylethyl)-1,6-naphthyridine-2-carboxamide], the IC50 fell in the range of 0.101 to 0.5 µM.
On to `CNC(=O)c1ccc2c(O)ncc(-c3ccc4c(c3)CS(=O)(=O)N4)c2n1` [Compound 63, 8-(2,2-dioxido-1,3-dihydrobenzo[c]isothiazol-5-yl)-5-hydroxy-N-methyl-1,6-naphthyridine-2-carboxamide], for which the IC50 lay within 0.101 to 0.5 µM.
On to `Cc1cc(C(N)=O)nc2c(-c3ccc(-c4cnn(C)c4)cc3)cncc12` [Compound 64, 4-Methyl-8-(4-(1-methyl-1H-pyrazol-4-yl)phenyl)-1,6-naphthyridine-2-carboxamide], for which the concentration for half-maximal inhibition (IC50) was in the range of 0.101 to 0.5 µM.
For `Cc1ccc2cncc(-c3ccc4c(c3)CS(=O)(=O)N4C)c2n1` [Compound 65, 1-Methyl-5-(2-methyl-1,6-naphthyridin-8-yl)-1,3-dihydrobenzo[c]isothiazole 2,2-dioxide] the value was 0.101 to 0.5 µM; for `Cn1cc(-c2ccc(-c3c(Cl)ncc4ccc(C(N)=O)nc34)cc2)cn1` [Compound 66, 7-Chloro-8-(4-(1-methyl-1H-pyrazol-4-yl)phenyl)-1,6-naphthyridine-2-carboxamide], 0.101 to 0.5 µM.
With `Cn1cc(-c2ccc(-c3cncc4ccc(C(=O)N5CCC[C@H]5c5ccc(Cl)cc5)nc34)cc2)cn1` [Compound 67, (S)-(2-(4-chlorophenyl)pyrrolidin-1-yl)(8-(4-(1-methyl-1H-pyrazol-4-yl)phenyl)-1,6-naphthyridin-2-yl)methanone], the concentration for half-maximal inhibition (IC50) was in the range of 0.101 to 0.5 µM.
Consider `Cn1cc(-c2ccc(-c3c(Cl)ncc4ccc(C(=N)N)nc34)cc2)cn1` [Compound 68, 7-chloro-8-(4-(1-methyl-1H-pyrazol-4-yl)phenyl)-1,6-naphthyridine-2-carboximidamide], for which the IC50 lay within 0.101 to 0.5 µM.
Take `C[C@H](NC(=O)c1ccc2cncc(Br)c2n1)c1ccccc1` [Compound 70, (S)-8-bromo-N-(1-phenylethyl)-1,6-naphthyridine-2-carboxamide]: the half-inhibitory concentration (IC50) is 0.101 to 0.5 µM.
Turning to `CN1c2ccc(-c3cncc4ccc(CN)nc34)cc2CS1(=O)=O` [Compound 71, C-[8-(1-Methyl-2,2-dioxo-2,3-dihydro-1H-benzo[c]isothiazol-5-yl)-[1,6]naphthyridin-2-yl]-methylamine], the IC50 was in the range of 0.101 to 0.5 µM.
As for `Cn1cc(-c2ccc(-c3cncc4ccc(N5CCNCC5)nc34)cc2)cn1` [Compound 72, 8-(4-(1-methyl-1H-pyrazol-4-yl)phenyl)-2-(piperazin-1-yl)-1,6-naphthyridine], the figure is 0.501 to 1 µM; as for `COCCNC(=O)c1ccc2cncc(-c3ccc(-c4cnn(C)c4)cc3)c2n1` [Compound 74, N-(2-Methoxyethyl)-8-(4-(1-methyl-1H-pyrazol-4-yl)phenyl)-1,6-naphthyridine-2-carboxamide], below 0.01 µM.
As for `CN(O)C(=O)c1ccc2cncc(-c3ccc(-c4cnn(C)c4)cc3)c2n1` [Compound 76, N-Hydroxy-N-methyl-8-(4-(1-methyl-1H-pyrazol-4-yl)phenyl)-1,6-naphthyridine-2-carboxamide], the figure is below 0.01 µM; as for `Cn1cc(-c2ccc(-c3cncc4ccc(S)nc34)cc2)cn1` [Compound 77, 8-(4-(1-methyl-1H-pyrazol-4-yl)phenyl)-1,6-naphthyridine-2-thiol], 0.01 to 0.1 µM.
For `Cn1cc(-c2ccc(-c3cncc4ccc(O)nc34)cc2)cn1` [Compound 79, 8-(4-(1-methyl-1H-pyrazol-4-yl)phenyl)-1,6-naphthyridin-2-ol] the value was 0.501 to 1 µM; for `COc1ccc(CNC(=O)c2ccc3cncc(-c4ccc(-c5cnn(C)c5)cc4)c3n2)cc1` [Compound 81, N-(4-methoxybenzyl)-8-(4-(1-methyl-1H-pyrazol-4-yl)phenyl)-1,6-naphthyridine-2-carboxamide], 0.01 to 0.1 µM; for `Cn1cc(-c2ccc(-c3cncc4ccc(C(=O)N5CCCC(F)(F)C5)nc34)cc2)cn1` [Compound 82, (3,3-difluoropiperidin-1-yl)(8-(4-(1-methyl-1H-pyrazol-4-yl)phenyl)-1,6-naphthyridin-2-yl)methanone], 0.01 to 0.1 µM.
`Cc1cncc2ccc(C(=O)N3CCC[C@H]3c3ccc(Cl)cc3)nc12` [Compound 83, (S)-(2-(4-chlorophenyl)pyrrolidin-1-yl)(8-methyl-1,6-naphthyridin-2-yl)methanone]: the IC50 is below 0.01 µM.
For `O=C(c1ccc2cnccc2n1)N1CCC[C@H]1c1ccc(Br)cc1` [Compound 84, (S)-(2-(4-bromophenyl)pyrrolidin-1-yl)(1,6-naphthyridin-2-yl)methanone] the value was 0.01 to 0.1 µM; for `Cn1cc(-c2ccc(-c3cncc4ccc(C(=O)NCc5ccc(C(F)(F)F)cc5)nc34)cc2)cn1` [Compound 87, 8-(4-(1-methyl-1H-pyrazol-4-yl)phenyl)-N-(4-(trifluoromethyl)benzyl)-1,6-naphthyridine-2-carboxamide], 0.01 to 0.1 µM.
